In patent EP0984967B1, “NAPHTHYRIDINE DERIVATIVES AND THEIR ANALOGUES INHIBITING CYTOMEGALOVIRUS” (BIOCHEM PHARMA INC, priority 1996, dated 1997) one finds IC50 and CC50 data, which are given here for 36 compounds.

Data set [1] concerns HCMV virus. The experiment in a line: CMV plaque reduction assay. The class given is cell-based. On the procedure:
The anti-CMV activity of test compounds was evaluated in a plaque reduction assay as follows: In 12-well tissue culture dishes, 1.5X10E5 or Hs68 cells (human […] fibroblast cell line) were plated per well with 2 ml of DMEM 10% fetal bovine serum and incubated in 5% CO2/air at 37°C overnight or until cells were ready. The medium was then removed and the cells inoculated with 0.5 ml (containing 200 pfu/ml diluted in DMEM 2% FBS) of HCMV virus in each well. After adsorption at 37°C for 2 hours, the virus was removed and cell monolayers were overlaid (1ml) with DMEM 2% FBS containing test compounds at various concentrations. The cells were then incubated at 37°C for 8 days, and then fixed with one volume (1ml) of formaldehyde 8%/water or PBS 1X for 30 minutes. The formaldehyde solution was removed and the cell monolayers were stained with crystal violet 2%/EtOH 20% for a few seconds and then rinsed with water. Monolayers were examined for the presence of plaques under a microscope, the percentage of plaque reduction determined for each compound by comparison with the untreated cells (no test compound) and the 50% inhibitory concentration (IC50) established. Ganciclovir was used as a positive control. Note: DMEM medium contained 1% glutamine and 1% pen/strep

Data set [2] is described as follows: Cytotoxicity assay ([3H]-methyl thymidine incorporation, cell proliferation). The class given is cell-based. To be noted: vero-34, hs-68 or wi-38; for CC50 at 48 h: 50% inhibitory concentration of cell proliferation, 48 hours with compound then 18 hours [3H]-methyl thymidine, cell line not given. The procedure: The cytotoxicity of test compounds was evaluated according to the following procedure: Flat bottom 96 well plates were plated with 5X10E3 Vero-34 cells/well and 1X10E4 Hs-68 or Wi-38 cells/well respectively and incubated overnight at 37°C and 5% CO2/air. After incubation, the supernatant medium was removed and replaced with test compound dilutions in 2% DMEM (150ul). The cells were then incubated 48 hours in a 5% CO2 incubator at 37°C. […] Cells were then collected onto a fiberglass filter (Printed Filtermat A 1450-421 Wallac) with a Tomtec cell harvester. Suspended cells were collected directly onto filter while for adherent cells, the medium was first removed, then the cells washed with PBS and trypsinized for 2-3 minutes (50µl trypsin/well) before collecting. Filters were dried for 1 hour at 37-40°C and then placed into bags (1450-microbeta # 1450-432 Wallac) with 4.5ml of Betascint and counts obtained with Microbeta 1450 Wallac (protocol 1). The percent of cell proliferation was determined by comparison to the control (no test compound) and thereby establishing 50% inhibitory concentration is established.

The mark [3] stands for this setting: Human betaherpesvirus 5, 192 h, plaque reduction, HCMV in Hs68 cells (human foreskin fibroblast cell line), 8 days at 37°C.

Values after ≈ are worked out from the molar mass of the structure shown.

Regarding `O=C(c1ccc2cnccc2n1)N1CCc2ccccc2C1` [compound #20, (3,4-dihydro-1h-isoquinolin-2-yl)-[1,6]naphthyridin-2-yl-methanone], the IC50 (commonly the concentration needed to halve the response being measured) in data set [1] (setting [3]) was 5 to 25 mg/L (≈ 17.3 to 86.4 µM). The CC50 (as a rule, the concentration giving 50% cytotoxicity) at 48 h in data set [2] is more than 100 mg/L.
On the same counts, the results for `COc1cccc(OC)c1CNC(=O)c1ccc2cnccc2n1` [compound #14, N-(2,6-dimethoxybenzyl)-2-(1,6)naphthyridinecarboxamide] are less than 5 mg/L and more than 100 mg/L.
The like results for `O=C(NCc1ccccc1Br)c1ccc2cnccc2n1` [compound #5, N-(2-bromobenzyl)-2-(1,6)naphthyridinecarboxamide] were, in that order, 0.5 to 1 mg/L (≈ 1.46 to 2.92 µM) and more than 100 mg/L.
The like results for `O=C(NCc1ccccc1F)c1ccc2cnccc2n1` [compound #7, N-(2-fluorobenzyl)-2-(1,6)naphthyridinecarboxamide] were, in that order, less than 5 mg/L and approximately 100 mg/L (≈ 356 µM).
As to `CC(C)(C)OC(=O)NCCCCNC(=O)Nc1ccc2cnccc2n1` [compound #48, 1-(N-boc-4-aminobutyl)-3-[1,6]naphthyridin-2-yl-urea], the IC50 in data set [1] (setting [3]) fell in the range of 0.1 to 1 mg/L (≈ 0.278 to 2.78 µM). Further, the CC50 at 48 h in data set [2] lay in the range of 3.15 to 6.25 mg/L (≈ 8.76 to 17.4 µM).
Consider `Cc1ccccc1NC(=O)Nc1ccc2cnccc2n1` [compound 56, 1-(2-methyl-phenyl)-3-[1,6]naphthyridin-2-yl-urea], for which the 50% cytotoxic concentration (CC50) at 48 h in data set [2] was more than 100 mg/L.
For `COc1cccc(CNC(=S)c2ccc3cnccc3n2)c1` [compound #41, [1,6]Naphthyridine-2-thiocarboxylic acid-3-methoxybenzylamine], in data set [1] (setting [3]), the IC50 was in the range of 1 to 10 mg/L (≈ 3.23 to 32.3 µM). For the same compound, the CC50 at 48 h in data set [2] lay in the range of 25 to 50 mg/L (≈ 80.8 to 162 µM).
The like results for `O=C(N[C@@H]1C[C@H]1c1ccccc1)c1ccc2cnccc2n1` (relative stereo) [compound #15, [1,6]naphthyridine-2-carboxylic acid (trans-2-phenyl-cyclopropyl)-amide] were, in that order, 1 to 10 mg/L (≈ 3.46 to 34.6 µM) and approximately 25 mg/L (≈ 86.4 µM).
The like results for `CCCCNC(=O)Nc1ccc2cnccc2n1` [compound #53, 1-butyl-3-[1,6]naphthyridin-2-yl-urea] were, in that order, 0.1 to 1 mg/L (≈ 0.409 to 4.09 µM) and 2.5 to 5 mg/L (≈ 10.2 to 20.5 µM).
On the same counts, the results for `C[C@H](NC(=O)Nc1ccc2cnccc2n1)c1ccccc1` [compound #50, 1-[(S)-α-methylbenzyl]-3-[1,6]naphthyridin-2-yl-urea] are 1 to 10 mg/L (≈ 3.42 to 34.2 µM) and 12.5 to 25 mg/L (≈ 42.8 to 85.5 µM).
For the compound `Nc1nc(O)c2ncn(COC(CO)CO)c2n1` [ganciclovir, reference compound], the IC50 in data set [1] (Human betaherpesvirus 5, positive control tested in tandem with the compounds, plaque reduction assay) lay within 0.1 to 0.5 mg/L (≈ 0.392 to 1.96 µM). The CC50 in data set [2] (positive control tested in tandem with the compounds, value varied between runs) lay in the range of 10 to 200 mg/L (≈ 39.2 to 784 µM).
In data set [1] (setting [3]), `CC(C)Oc1ccccc1CNC(=S)c1ccc2cnccc2n1` [compound #40, [1,6]Naphthyridine-2-thiocarboxylic acid-2-isopropoxybenzylamine] registered a concentration for half-maximal inhibition (IC50) of 0.1 to 1 mg/L (≈ 0.296 to 2.96 µM). Further, the CC50 at 48 h in data set [2] was in the range of 12.5 to 25 mg/L (≈ 37 to 74.1 µM).
Turning to `CC(C)Oc1ccccc1NC(=O)Nc1ccc2cnccc2n1` [compound #46, 1-(2-iso-propoxy-phenyl)-3-[1,6]naphthyridin-2-yl-urea], the IC50 in data set [1] (setting [3]) is approximately 0.01 mg/L (≈ 0.031 µM). In data set [2], the CC50 at 48 h was approximately 25 mg/L (≈ 77.6 µM).
For `Nc1cccc(F)c1CNC(=O)c1ccc2cnccc2n1` [compound #16, N-(2-amino-6-fluorobenzyl)-2-[1,6]naphthyridinecarboxamide], in data set [1] (setting [3]), the IC50 is 1 to 10 mg/L (≈ 3.37 to 33.7 µM). In addition, in data set [2], the 50% cytotoxic concentration (CC50) at 48 h was approximately 25 mg/L (≈ 84.4 µM).
The like results for `O=C(NCC1CCCCC1)c1ccc2cnccc2n1` [compound #19] were, in that order, 1 to 10 mg/L (≈ 3.71 to 37.1 µM) and 25 to 50 mg/L (≈ 92.8 to 186 µM).
On the same counts, the results for `CSc1ccccc1CNC(=O)c1ccc2cnccc2n1` [compound #21, N-(2-methylthiobenzyl)-2-[1,6]naphthyridine carboxamide] are 1 to 10 mg/L (≈ 3.23 to 32.3 µM) and approximately 50 mg/L (≈ 162 µM).
With `Cl.NCCCCNC(=O)Nc1ccc2cnccc2n1` [compound #49, 1-(4-aminobutyl)-3-[1,6]naphthyridin-2-yl-urea hydrochloride], the IC50 in data set [1] (setting [3]) is 1 to 5 mg/L. Also, the CC50 at 48 h in data set [2] was in the range of 6.25 to 12.5 mg/L.
On the same counts, the results for `C=CCNC(=O)c1ccc2cnccc2n1` [compound #24, (1,6)naphthyridine-2-carboxylic acid allylamide] are 5 to 10 mg/L (≈ 23.4 to 46.9 µM) and 10 to 100 mg/L (≈ 46.9 to 469 µM).
On the same counts, the results for `COc1cccc(CNC(=O)c2ccc3cnccc3n2)c1` [compound #12, N-(3-methoxybenzyl)-2-(1,6)naphthyridinecarboxamide] are less than 5 mg/L and more than 100 mg/L.
On the same counts, the results for `CC(NC(=O)c1ccc2cnccc2n1)c1ccccc1` (centres unmarked) [compound #17, [1,6]naphthyridine-2-carboxylic acid (1-phenyl-ethyl) amide] are 0.1 to 1 mg/L (≈ 0.361 to 3.61 µM) and 25 to 50 mg/L (≈ 90.1 to 180 µM).
`O=C(NCc1cccc(Br)c1)c1ccc2cnccc2n1` [compound #6, N-(3-bromobenzyl)-2-(1,6)naphthyridinecarboxamide]: the IC50 in data set [1] (setting [3]) lay in the range of 1 to 5 mg/L (≈ 2.92 to 14.6 µM). Moreover, in data set [2], the CC50 at 48 h was approximately 50 mg/L (≈ 146 µM).
Compound `O=C(NCc1ccccc1)c1ccc2cnccc2n1` [compound #2, N-benzyl-2-(1,6)naphthyridinecarboxamide] gave an IC50 in data set [1] (setting [3]) of approximately 1 mg/L (≈ 3.8 µM). For the same compound, the cytotoxic concentration (CC50) at 48 h in data set [2] is approximately 50 mg/L (≈ 190 µM).
On the same counts, the results for `CC(C)Oc1ccccc1CNC(=O)c1ccc2cncc(-c3ccccn3)c2n1` [compound 57, 8-(2-pyridyl)-[1,6]naphthyridine-2-carboxylic acid (2-isopropoxybenzylamine)] are 0.1 to 1 mg/L (≈ 0.251 to 2.51 µM) and 6 to 12.5 mg/L (≈ 15.1 to 31.4 µM).
Regarding `O=C(NCc1ccccn1)c1ccc2cnccc2n1` [compound #18, [1,6]naphthyridine-2-carboxylic acid (pyridine-2-ylmethyl) amide], the IC50 in data set [1] (setting [3]) is 5 to 25 mg/L (≈ 18.9 to 94.6 µM). Also, the CC50 at 48 h in data set [2] is more than 100 mg/L.
On the same counts, the results for `COC(=O)c1ccccc1CNC(=O)c1ccc2cnccc2n1` [compound #23, N-(2-methoxycarbonylbenzyl)-2-(1,6)naphthyridinecarboxamide] are less than 5 mg/L and more than 100 mg/L.
The like results for `Cc1ccccc1CNC(=O)c1ccc2cnccc2n1` [compound #1, N-(2-methylbenzyl)-2-(1,6)naphthyridinecarboxamide] were, in that order, approximately 1 mg/L (≈ 3.61 µM) and 50 to 75 mg/L (≈ 180 to 270 µM).
On the same counts, the results for `O=C(NCc1ccc(Br)cc1)c1ccc2cnccc2n1` [compound #3, N-(4-bromobenzyl)-2-(1,6)naphthyridi necarboxamide] are 10 to 50 mg/L (≈ 29.2 to 146 µM) and 10 to 50 mg/L (≈ 29.2 to 146 µM).
`CCNc1ccccc1CNC(=O)c1ccc2cncc(Br)c2n1` [compound #33, 8-bromo-[1,6]naphthyridine-2-carboxylic acid (2-N-ethylaminobenzylamine)]: the IC50 in data set [1] (setting [3]) is less than 0.01 mg/L. Further, the CC50 at 48 h in data set [2] fell in the range of 6.25 to 12.5 mg/L (≈ 16.2 to 32.4 µM).
On the same counts, the results for `O=C(NCc1ccc(Cl)cc1)c1ccc2cnccc2n1` [compound #8, N-(4-chlorobenzyl)-2-[1,6]naphthyridinecarboxamide] are 1 to 10 mg/L (≈ 3.36 to 33.6 µM) and 6.25 to 10 mg/L (≈ 21 to 33.6 µM).
On the same counts, the results for `C[C@@H](NC(=O)Nc1ccc2cnccc2n1)c1ccccc1` [compound #51, 1-[(R)-α-methylbenzyl]-3-[1,6]naphthyridin-2-yl-urea] are 0.01 to 0.1 mg/L (≈ 0.0342 to 0.342 µM) and less than 3.15 mg/L.
On the same counts, the results for `CC(C)Oc1ccccc1CNC(=O)Nc1ccc2cnccc2n1` [compound #47, 1-(2-iso-propoxybenzyl)-3-[1,6]naphthyridin-2-yl-urea] are 0.01 to 0.1 mg/L (≈ 0.0297 to 0.297 µM) and 25 to 50 mg/L (≈ 74.3 to 149 µM).
As for `CCOc1ccccc1CNC(=O)c1ccc2cnccc2n1` [compound #9, N-(2-ethyloxybenzyl)-2-(1,6)naphthyridinecarboxamide], in data set [1] (setting [3]), the IC50 is approximately 0.1 mg/L (≈ 0.325 µM). For the same compound, the CC50 at 48 h in data set [2] is approximately 6.25 mg/L (≈ 20.3 µM).
The like results for `O=C(NCc1ccccc1Cl)c1ccc2cnccc2n1` [compound #4, N-(2-chlorobenzyl)-2-(1,6)naphthyridinecarboxamide] were, in that order, 0.5 to 1 mg/L (≈ 1.68 to 3.36 µM) and approximately 100 mg/L (≈ 336 µM).
The like results for `O=C(NCc1ccccc1O)c1ccc2cnccc2n1` [compound #22, N-(2-hydroxybenzyl)-2-(1,6)naphthyridinecarboxamide] were, in that order, less than 5 mg/L and 25 to 100 mg/L (≈ 89.5 to 358 µM).
The like results for `COc1ccccc1CNC(=O)c1ccc2cncc(Br)c2n1` [compound #35, 8-bromo-[1,6]naphthyridine-2-carboxylic acid (2-methoxybenzylamine)] were, in that order, approximately 0.01 mg/L (≈ 0.0269 µM) and approximately 12.5 mg/L (≈ 33.6 µM).
In turn, `CC(C)Oc1ccccc1CNC(=O)c1ccc2cncc(Br)c2n1` [compound #34, 8-bromo-[1,6]naphthyridine-2-carboxylic acid (2-isopropoxybenzylamine)] registered an IC50 in data set [1] (setting [3]) of 0.1 to 1 mg/L (≈ 0.25 to 2.5 µM). The CC50 at 48 h in data set [2] was approximately 12.5 mg/L (≈ 31.2 µM).
